Test results: article PMC3053071 (Bioorganic & medicinal chemistry letters, 2011)

Assay: Cell toxicity
Type: cell-based

SMILES: C=C(C)[C@@H]1CC[C@]2(C(=O)O)CC[C@]3(C)[C@H](CC[C@@H]4[C@@]5(C)CC[C@H](OC(=O)CC(C)(C)C(=O)O)C(C)(C)[C@@H]5CC[C@]43C)[C@@H]12 [Bevirimat, 3-O-(3′,3′-dimethylsuccinyl)betulinic acid]
- IC50: > 300 µM
